Values quoted from earlier work in US10106516B2, “PDE10 inhibitors and related compositions and methods” (Omeros Corporation, priority 2010, dated 2018).

Molecular target: PDE10
Conditions: PDE10, in vitro binding studies; read-out: dissociation constant (Kd) for cGMP binding; cited from earlier work

Structure (SMILES): Nc1nc2c(ncn2[C@@H]2O[C@@H]3COP(=O)(O)O[C@H]3[C@H]2O)c(=O)[nH]1 [cGMP]
- Kd: > 9 µM
